Results as given in patent publication US8999940B2 (Ipsen Pharma S.A.S., priority 2008, dated 2015).

Key:
[1] = target: T1, human recombinant GIP receptor (Homo sapiens, UniProt P48546); experiment: In vitro hGIP receptor binding assay
T1 construct: expressed in transfected cells; host or cells: CHO-K1 clonal cells (membrane preparation)
T1 sequence (P48546 22-466): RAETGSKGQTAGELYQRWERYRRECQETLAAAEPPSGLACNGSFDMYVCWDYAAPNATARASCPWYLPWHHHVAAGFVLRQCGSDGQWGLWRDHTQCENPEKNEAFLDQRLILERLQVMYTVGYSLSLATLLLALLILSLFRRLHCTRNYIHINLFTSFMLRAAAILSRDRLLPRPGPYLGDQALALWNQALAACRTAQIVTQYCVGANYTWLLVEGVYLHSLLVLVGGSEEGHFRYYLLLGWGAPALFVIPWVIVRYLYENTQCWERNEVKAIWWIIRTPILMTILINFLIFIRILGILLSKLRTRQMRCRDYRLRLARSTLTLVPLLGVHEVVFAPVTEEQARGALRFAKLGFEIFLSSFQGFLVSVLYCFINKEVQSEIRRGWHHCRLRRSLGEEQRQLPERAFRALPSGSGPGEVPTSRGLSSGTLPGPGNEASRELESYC
Experimental: A. In Vitro hGIP Receptor Binding Assay […] The incubations were terminated by rapid filtration through GF/C filters (pre-soaked in 0.5% polyethylenimine) using a Brandel filtration manifold. Each tube and filter were then washed three times with 5-ml aliquots of ice-cold buffer.

[2] = Human plasma half-life assay; format: in vitro ADME; conditions: 37° C., LC-MS, read-out: Human Plasma T½ (converted)
[3] = Rat plasma half-life assay; format: in vitro ADME; conditions: 37° C., LC-MS, read-out: Rat Plasma T½ (converted)

SMILES	Ki [1] [nM]	half-life at 0.1 mg/ml [2] [days]	half-life at 0.1 mg/ml [3] [min]
CC[C@H](C)[C@H](NC(=O)[C@H](CCCCN)NC(=O)[C@H](CC(=O)O)NC(=O)[C@H](CCSC)NC(=O)[C@H](C)NC(=O)[C@@H](NC(=O)C1(NC(=O)[C@H](Cc2ccc(O)cc2)NC(=O)[C@H](CC(=O)O)NC(=O)[C@H](CO)NC(=O)[C@@H](NC(=O)[C@H](Cc2ccccc2)NC(=O)[C@@H](NC(=O)CNC(=O)[C@H](CCC(=O)O)NC(=O)C(C)(C)NC(=O)[C@@H](N)Cc2ccc(OC)cc2)[C@@H](C)O)[C@@H](C)CC)CCCC1)[C@@H](C)CC)C(=O)N[C@@H](Cc1c[nH]cn1)C(=O)N[C@@H](CCC(N)=O)C(=O)N[C@@H](CCC(N)=O)C(=O)N[C@@H](CC(=O)O)C(=O)N[C@@H](Cc1ccccc1)C(=O)N[C@H](C(=O)N[C@@H](CC(N)=O)C(=O)N[C@@H](Cc1c[nH]c2ccccc12)C(=O)N[C@@H](CC(C)C)C(=O)N[C@@H](CC(C)C)C(=O)N[C@@H](C)C(=O)N[C@@H](CCC(N)=O)C(=O)N[C@@H](CCCCN)C(=O)NCC(=O)N[C@@H](CCCCN)C(=O)N[C@@H](CCCCN)C(=O)N[C@@H](CC(N)=O)C(=O)N[C@@H](CC(=O)O)C(=O)N[C@@H](Cc1c[nH]c2ccccc12)C(=O)N[C@@H](CCCCN)C(=O)N[C@@H](Cc1c[nH]cn1)C(=O)N[C@@H](CC(N)=O)C(=O)N[C@H](C(=O)NC1(C(=O)N[C@@H](CCC(N)=O)C(=O)O)CCCC1)[C@@H](C)CC)C(C)C [Example 31, [Tyr(Me)^1, Aib^2, A5c^11, 41]hGIP(1-42)-OH]	4.5	1.45	582
CCCC[C@H](NC(=O)[C@H](C)NC(=O)[C@@H](NC(=O)C1(NC(=O)[C@H](Cc2ccc(O)cc2)NC(=O)[C@H](CC(=O)O)NC(=O)[C@H](CO)NC(=O)[C@@H](NC(=O)[C@H](Cc2ccccc2)NC(=O)[C@@H](NC(=O)CNC(=O)[C@H](CCC(=O)O)NC(=O)C(C)(C)NC(=O)[C@@H](N)Cc2ccc(N)cc2)[C@@H](C)O)[C@@H](C)CC)CCCC1)[C@@H](C)CC)C(=O)N[C@@H](CC(=O)O)C(=O)N[C@@H](CCCCN)C(=O)N[C@H](C(=O)N[C@@H](Cc1c[nH]cn1)C(=O)N[C@@H](CCC(N)=O)C(=O)N[C@@H](CCC(N)=O)C(=O)N[C@@H](CC(=O)O)C(=O)N[C@@H](Cc1ccccc1)C(=O)N[C@H](C(=O)N[C@@H](CC(N)=O)C(=O)N[C@@H](Cc1c[nH]c2ccccc12)C(=O)N[C@@H](CC(C)C)C(=O)N[C@@H](CC(C)C)C(=O)N[C@@H](C)C(=O)N[C@@H](CCC(N)=O)C(=O)N[C@@H](CCCCN)C(=O)NCC(=O)N[C@@H](CCCCN)C(=O)N[C@@H](CCCCN)C(=O)N[C@@H](CC(N)=O)C(=O)N[C@@H](CC(=O)O)C(=O)N[C@@H](Cc1c[nH]c2ccccc12)C(=O)N[C@@H](CCCCN)C(=O)N[C@@H](Cc1c[nH]cn1)C(=O)N[C@@H](CC(N)=O)C(=O)N[C@H](C(=O)N[C@H](C(=O)N[C@@H](CCC(N)=O)C(=O)O)[C@@H](C)O)[C@@H](C)CC)C(C)C)[C@@H](C)CC [Example 18, (4NH2-Phe^1, Aib^2, A5c^11, Nle^14)hGIP(1-42)-OH]	3.4	> 3	1930
CC[C@H](C)[C@H](NC(=O)[C@H](CCCCN)NC(=O)[C@H](CC(=O)O)NC(=O)C1(NC(=O)[C@H](C)NC(=O)[C@@H](NC(=O)C2(NC(=O)[C@H](Cc3ccc(O)cc3)NC(=O)[C@H](CC(=O)O)NC(=O)[C@H](CO)NC(=O)[C@@H](NC(=O)[C@H](Cc3ccccc3)NC(=O)[C@@H](NC(=O)CNC(=O)[C@H](CCC(=O)O)NC(=O)C(C)(C)NC(=O)[C@@H](N)Cc3ccc(O)c(OC)c3)[C@@H](C)O)[C@@H](C)CC)CCCC2)[C@@H](C)CC)CCCC1)C(=O)N[C@@H](Cc1c[nH]cn1)C(=O)N[C@@H](CCC(N)=O)C(=O)N[C@@H](CCC(N)=O)C(=O)N[C@@H](CC(=O)O)C(=O)N[C@@H](Cc1ccccc1)C(=O)N[C@H](C(=O)N[C@@H](CC(N)=O)C(=O)N[C@@H](Cc1c[nH]c2ccccc12)C(=O)N[C@@H](CC(C)C)C(=O)N[C@@H](CC(C)C)C(=O)N[C@@H](C)C(=O)N[C@@H](CCC(N)=O)C(=O)N[C@@H](CCCCN)C(=O)NCC(=O)N[C@@H](CCCCN)C(=O)N[C@@H](CCCCN)C(=O)N[C@@H](CC(N)=O)C(=O)N[C@@H](CC(=O)O)C(=O)N[C@@H](Cc1c[nH]c2ccccc12)C(=O)N[C@@H](CCCCN)C(=O)N[C@@H](Cc1c[nH]cn1)C(=O)N[C@@H](CC(N)=O)C(=O)N[C@H](C(=O)N[C@H](C(=O)N[C@@H](CCC(N)=O)C(=O)N[C@@H](Cc1c[nH]cn1)C(=O)O)[C@@H](C)O)[C@@H](C)CC)C(C)C [Example 74, (3MeO-Tyr^1, Aib^2, A5c^11, 14, His^43)hGIP(1-43)-OH]	9.34	> 2.08	768
CCCC[C@H](NC(=O)[C@H](C)NC(=O)[C@@H](NC(=O)C1(NC(=O)[C@H](Cc2ccc(O)cc2)NC(=O)[C@H](CC(=O)O)NC(=O)[C@H](CO)NC(=O)[C@@H](NC(=O)[C@H](Cc2ccccc2)NC(=O)[C@@H](NC(=O)CNC(=O)[C@H](CCC(=O)O)NC(=O)C(C)(C)NC(=O)[C@@H](N)Cc2cccc(F)c2)[C@@H](C)O)[C@@H](C)CC)CCCC1)[C@@H](C)CC)C(=O)N[C@@H](CC(=O)O)C(=O)N[C@@H](CCCCN)C(=O)N[C@H](C(=O)N[C@@H](Cc1c[nH]cn1)C(=O)N[C@@H](CCC(N)=O)C(=O)N[C@@H](CCC(N)=O)C(=O)N[C@@H](CC(=O)O)C(=O)N[C@@H](Cc1ccccc1)C(=O)N[C@H](C(=O)N[C@@H](CC(N)=O)C(=O)N[C@@H](Cc1c[nH]c2ccccc12)C(=O)N[C@@H](CC(C)C)C(=O)N[C@@H](CC(C)C)C(=O)N[C@@H](C)C(=O)N[C@@H](CCC(N)=O)C(=O)N[C@@H](CCCCN)C(=O)NCC(=O)N[C@@H](CCCCN)C(=O)N[C@@H](CCCCN)C(=O)N[C@@H](CC(N)=O)C(=O)N[C@@H](CC(=O)O)C(=O)N[C@@H](Cc1c[nH]c2ccccc12)C(=O)N[C@@H](CCCCN)C(=O)N[C@@H](Cc1c[nH]cn1)C(=O)N[C@@H](CC(N)=O)C(=O)N[C@H](C(=O)N[C@H](C(=O)N[C@@H](CCC(N)=O)C(=O)O)[C@@H](C)O)[C@@H](C)CC)C(C)C)[C@@H](C)CC [Example 23, (3F-Phe^1, Aib^2, A5c^11, Nle^14)hGIP(1-42)-OH]	2.7	> 3.08	> 4440
CCCC[C@H](NC(=O)[C@H](C)NC(=O)[C@@H](NC(=O)C1(NC(=O)[C@H](Cc2ccc(O)cc2)NC(=O)[C@H](CC(=O)O)NC(=O)[C@H](CO)NC(=O)[C@@H](NC(=O)[C@H](Cc2ccccc2)NC(=O)[C@@H](NC(=O)CNC(=O)[C@H](CCC(=O)O)NC(=O)C(C)(C)NC(=O)[C@@H](N)Cc2cc(I)c(O)c(I)c2)[C@@H](C)O)[C@@H](C)CC)CCCC1)[C@@H](C)CC)C(=O)N[C@@H](CC(=O)O)C(=O)N[C@@H](CCCCN)C(=O)N[C@H](C(=O)N[C@@H](Cc1c[nH]cn1)C(=O)N[C@@H](CCC(N)=O)C(=O)N[C@@H](CCC(N)=O)C(=O)N[C@@H](CC(=O)O)C(=O)N[C@@H](Cc1ccccc1)C(=O)N[C@H](C(=O)N[C@@H](CC(N)=O)C(=O)N[C@@H](Cc1c[nH]c2ccccc12)C(=O)N[C@@H](CC(C)C)C(=O)N[C@@H](CC(C)C)C(=O)N[C@@H](C)C(=O)N[C@@H](CCC(N)=O)C(=O)N[C@@H](CCCCN)C(=O)NCC(=O)N[C@@H](CCCCN)C(=O)N[C@@H](CCCCN)C(=O)N[C@@H](CC(N)=O)C(=O)N[C@@H](CC(=O)O)C(=O)N[C@@H](Cc1c[nH]c2ccccc12)C(=O)N[C@@H](CCCCN)C(=O)N[C@@H](Cc1c[nH]cn1)C(=O)N[C@@H](CC(N)=O)C(=O)N[C@H](C(=O)N[C@H](C(=O)N[C@@H](CCC(N)=O)C(=O)O)[C@@H](C)O)[C@@H](C)CC)C(C)C)[C@@H](C)CC [Example 17, (3,51-Tyr^1, Aib^2, A5c^11, Nle^14)hGIP(1-42)-OH]	77.9	> 3	1810
